# Source: PubChem BioAssay (NCI)
#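 Exposure lasted 48 hours, with cells grown in 96-well plates and compounds tested at five concentrations. Abbreviation: GI50, concentration required for 50% inhibition of growth. TGI is the concentration that stops growth completely.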 Where a SMILES comes first, the peptide text is derived from it. [ ]: non-standard residue; d: D form. pGlu = O=C1CC[CH](C(=O)O)N1
# Tests used:
# Assay in all cases: NCI tumour cell line growth inhibition, 48 h
# COLO 205 colon = tested on: COLO 205 colon
# OVCAR-5 ovarian = tested on: OVCAR-5 ovarian
# ACHN renal = tested on: ACHN renal
# OVCAR-8 ovarian = tested on: OVCAR-8 ovarian
# SR leukemia = tested on: SR leukemia
# NCI-H522 lung = tested on: NCI-H522 lung
# SN12C renal = tested on: SN12C renal
# OVCAR-4 ovarian = tested on: OVCAR-4 ovarian
# HT29 colon = tested on: HT29 colon
# A498 renal = tested on: A498 renal
SMILES,TGI (COLO 205 colon) [µM],TGI (OVCAR-5 ovarian) [µM],TGI (ACHN renal) [µM],TGI (OVCAR-8 ovarian) [µM],TGI (SR leukemia) [µM],TGI (NCI-H522 lung) [µM],TGI (SN12C renal) [µM],TGI (OVCAR-4 ovarian) [µM],TGI (HT29 colon) [µM],TGI (A498 renal) [µM],GI50 (COLO 205 colon) [µM],GI50 (OVCAR-5 ovarian) [µM],GI50 (ACHN renal) [µM],GI50 (SR leukemia) [µM],GI50 (NCI-H522 lung) [µM],GI50 (SN12C renal) [µM],GI50 (OVCAR-4 ovarian) [µM],GI50 (HT29 colon) [µM],GI50 (A498 renal) [µM]
COc1ccc(S(=O)(=O)Nc2ccc(-c3csc(N4C(=O)/C(=C/c5ccccc5[N+](=O)[O-])N=C4c4ccccc4)n3)cc2)cc1Cl,> 100,> 100,> 100,> 100,> 100,> 100,> 100,> 100,> 100,59.8,,,,,,,,,
C(=N\c1nc2cc3sc(/N=C/c4ccccc4)nc3cc2s1)/c1ccccc1,> 100,> 100,> 100,> 100,> 100,97.4,> 100,> 100,> 100,> 100,,,,,,,,,
CC(C)(C)C1=CC(=N/N=c2\scc(-c3ccccc3)n2-c2ccccc2)C=C(C(C)(C)C)C1=O,> 100,> 100,> 100,> 100,> 100,> 100,> 100,> 100,> 100,> 100,,,,,,,,,
O=C(Cc1ccc2ccccc2c1)NCc1ccc(C(=O)NCCc2ccccc2)cc1,> 100,> 100,> 100,> 100,> 100,> 100,> 100,> 100,> 100,> 100,,,,,,,,,
CCn1c(SCC(=O)N/N=C2\SCC(=O)N2c2ccc(C)cc2)nc2ccccc2c1=O,> 100,48.2,34.2,35.5,47.2,62.1,50.4,48.2,31.2,38.4,,,,,,,,,
O=C(Nc1ccccc1)N(CCN(Cc1ccccc1)C(=O)Nc1ccccc1)CCN(Nc1ccccc1)C(=O)Nc1ccccc1,> 100,> 100,> 100,> 100,> 100,> 100,> 100,> 100,> 100,> 100,,,,,,,,,
CC(NC(=O)C1CCC(=O)N1)C(=O)N1CCCC1C(N)=O (stereo not drawn) ([pGlu]-Ala-Pro-NH2; configuration not given here),> 100,> 100,> 100,> 100,> 100,> 100,> 100,> 100,> 100,> 100,,,,,,,,,
C=C1C2CCC3C4(C)CCCC(C)(C(=O)O)C4CCC3(C2)C1OC(=O)/C(C)=C/C (centres undefined),82.1,79.5,> 100,> 100,9.55,> 100,62.6,> 100,> 100,60.4,,,,,,,,,
C[C@H](Nc1nc(N)c(N=O)c(=O)n1C)C(=O)O,> 10,> 10,> 10,> 10,> 10,> 10,> 10,> 10,> 10,> 10,,,,,,,,,
CC(C)C1CSC2N1C(=O)C2(OCc1ccccc1)C1CC1 (centres undefined),> 100,> 100,> 100,> 100,> 100,> 100,> 100,> 100,> 100,> 100,,,,,,,,,
O=c1onc2n1-c1ccc(Cl)cc1C(=S)N1CSCC21 (centres undefined),35.1,> 100,> 100,39.8,48.1,62.9,88.2,> 100,53.1,64,,,,,,,,,
O=[N+]([O-])c1ncc(N(CCO)CCO)s1,49.6,> 100,> 100,> 100,> 100,35.6,> 100,> 100,> 100,> 100,,,,,,,,,
Cc1ccc2nc3ccccc3c(C3C4C(=O)N(c5ccc(F)cc5)C(=O)C4ON3C(C(N)=O)c3ccccc3)c2c1 (centres undefined),35.7,> 100,> 100,> 100,> 100,57.8,> 100,> 100,> 100,> 100,,,,,,,,,
CCOP(=O)(OCC)Oc1c(OC)c2[nH]c(C(=O)OC)cc2c2c(C(=O)O)c[nH]c12,> 100,> 100,> 100,> 100,> 100,> 100,> 100,> 100,> 100,> 100,,,,,,,,,
CC(C)(C)c1cc(/C=C(\C#N)C2=NCCO2)cc(C(C)(C)C)c1O,3.39,10,14.5,19.6,8.91,9.06,10.1,22.8,11.7,16.7,,,,,,,,,
COC(=O)C(CNC(=O)/C=C/c1ccc(OC)c(OC)c1)NC(=O)/C=C/c1ccc(OC)c(OC)c1 (centres undefined),> 100,> 100,> 100,> 100,> 100,> 100,> 100,> 100,> 100,> 100,,,,,,,,,
C#CC1(O)CCC2[C@@H]3CCc4cc(Oc5nc(F)nc(-c6c(C)c(C(=O)OCC)n7ccccc67)n5)ccc4C3CC[C@@]21C (some centres undefined),> 100,> 100,> 100,> 100,> 100,> 100,> 100,> 100,> 100,> 100,,,,,,,,,

SMILES,TGI (COLO 205 colon) [µM],TGI (OVCAR-5 ovarian) [µM],TGI (ACHN renal) [µM],TGI (OVCAR-8 ovarian) [µM],TGI (SR leukemia) [µM],TGI (NCI-H522 lung) [µM],TGI (SN12C renal) [µM],TGI (OVCAR-4 ovarian) [µM],TGI (HT29 colon) [µM],TGI (A498 renal) [µM],GI50 (COLO 205 colon) [µM],GI50 (OVCAR-5 ovarian) [µM],GI50 (ACHN renal) [µM],GI50 (SR leukemia) [µM],GI50 (NCI-H522 lung) [µM],GI50 (SN12C renal) [µM],GI50 (OVCAR-4 ovarian) [µM],GI50 (HT29 colon) [µM],GI50 (A498 renal) [µM]
COc1ccc(C2SCC(=O)N2c2ccc(-n3c(-c4ccccc4)nc4ccccc4c3=O)cc2)cc1 (centres undefined),> 100,> 100,> 100,> 100,> 100,> 100,> 100,> 100,> 100,> 100,,,,,,,,,
CC(C)(C)OC(=O)NCC(CNC(=O)OC(C)(C)C)C(N)=O,> 100,> 100,> 100,> 100,> 100,> 100,> 100,> 100,> 100,> 100,,,,,,,,,
COc1ccc(/C=N\N(C)Cc2cccc3ccsc23)cc1,> 100,> 100,> 100,> 100,> 100,> 100,> 100,> 100,> 100,> 100,,,,,,,,,
Cc1nc(-c2ccccc2)cn2c1nc1ccccc12,> 100,> 31.6,49.4,37.3,> 100,> 66.8,> 84.7,65.4,> 56.4,23.5,,,,,,,,,
NC1=Nc2ccccc2Sc2nncn21,> 100,> 100,> 100,> 100,> 100,> 100,> 100,> 100,> 100,> 100,,,,,,,,,
CC1OC(OC2C(O)COC(OC3C(C)OC(OC4C(OC(=O)[C@]56CCC(C)(C)C[C@@H]5C5=CCC7[C@@]8(C)C[C@H](O)[C@H](OC9OC(CO)C(O)C(O)C9O)[C@@](C)(CO)[C@@H]8CC[C@@]7(C)[C@]5(C)CC6)OCC(O)C4O)C(O)C3O)C2O)C(O)C(O)C1O (some centres undefined),38.7,36.4,44.3,43.4,46.9,> 100,44.4,52.1,48.8,36,,,,,,,,,
C#C[C@]1(O)CC[C@H]2[C@@H]3CCC4=C/C(=N\OCCN5CCCCC5)CC[C@]4(C)[C@H]3CC[C@@]21C,7.43,28.1,22.5,21.2,5.17,6.08,19.7,40,22.4,20.5,,,,,,,,,
O=C(O)c1nc2cc(Cl)ccc2[nH]c1=O,> 100,> 100,> 100,> 100,> 100,> 100,> 100,> 100,> 100,> 100,,,,,,,,,
CO/C=C(/C(=O)OC)[C@@H]1C[C@@H]1c1ccc2ccccc2c1,32.9,> 100,78.7,> 100,44.7,28.5,> 100,77.1,48.6,> 100,,,,,,,,,
CN(C)Cc1cc(Cl)c(O)c(CN(C)C)c1,> 100,> 100,> 100,> 100,> 100,> 100,> 100,> 100,> 100,> 100,,,,,,,,,
CC(NC1=NCCO1)c1ccccc1Cl (centres undefined),> 100,> 100,> 100,> 100,> 100,> 100,> 100,> 100,> 100,> 100,,,,,,,,,
CCCCN(CC)C(=O)C(=O)Cc1nc2ccc(C(=O)c3ccccc3)cc2[nH]c1=O,> 100,> 100,> 100,> 100,> 31.6,75,> 100,> 100,> 100,> 100,,,,,,,,,
Cc1ncn(-c2ccccc2O)c1C,> 100,> 100,> 100,> 100,> 100,> 100,> 100,> 100,> 100,> 100,,,,,,,,,
OC1NC2Nc3ccccc3NC2NC1O (centres undefined),> 100,> 100,> 100,> 100,> 100,> 100,> 100,> 100,> 100,> 100,,,,,,,,,
COc1c2c(c3c(c1OC)c(=O)c1ccccc1n3C)OCO2,> 100,> 100,> 100,> 100,> 100,> 100,> 100,> 100,> 100,> 100,,,,,,,,,
FC1(F)ON2CCc3ccccc3C2[C@H]1c1ccccc1 (some centres undefined),> 100,> 100,> 100,> 100,> 100,> 100,> 100,> 100,> 100,> 100,> 100,> 100,> 100,> 100,> 100,> 100,> 100,> 100,> 100
